Data set [1] has as its system human prostate cancer VCaP cell subcutaneous xenograft tumor. The experiment in a line: In vivo pharmacodynamic study, human prostate cancer VCaP cell subcutaneous xenograft tumor CB17 SCID mouse model. The settings on record: castrated CB17 SCID mice, 24th day after administration. On the procedure:
Experimental animal: male mice of CB17 SCID strain, aged 6-8 weeks, weighing 18-22 grams, supplier: Beijing Weitong Lihua Laboratory Animal Technology Co., Ltd. Shanghai Branch, animal certificate number: 20170011005577. Animals were reared in the experimental environment for 7 days after arrival and the experiment was started.
Experimental method: Human prostate cancer cell VCaP cells (ATCC-CRL-2876) were cultured in vitro in monolayer, and the culture conditions were DMEM medium with 20% fetal bovine serum, 100 U/mL penicillin and 100 μg/mL streptomycin, cultured in a 5% CO2 incubator at 37° C. Conventional digestion with trypsin-EDTA was performed twice a week for passage. When the cell saturation was 80%-90% and the number reached the requirement, the cells were collected, counted, and inoculated. 0.2 mL (10× 10^6 cells+Matrigel) VCaP cells were subcutaneously inoculated into the left upper limb of each mouse, and castration was performed 33 days after cell inoculation. When the average tumor volume reached 119 mm^3, the drugs were administered in groups, and the doses of compound 14 were set to four groups: 1 mg/kg, 3 mg/kg, 10 mg/kg and 30 mg/kg.
Daily observation of experimental animals: the health status and death of animals were monitored every day. Routine examinations included observing the effects of tumor growth and drug treatment on the daily behavior of animals, such as behavioral activities, food and water intake (visual observation only), and weight changes (body weight measured three times a week), physical signs or other abnormal conditions.
Tumor measurements and experimental indicators: Experimental indicators were to examine whether tumor growth was inhibited, delayed or cured. Tumor diameters were measured with vernier calipers three times a week.
The calculation formula of tumor volume is: V=0.5a×b2, where a and b represented the long diameter and short diameter of the tumor, respectively. The antitumor effect of the compound was evaluated by TGI (%) or relative tumor proliferation rate T/C (%). TGI (%), reflecting the tumor growth inhibition rate. Calculation of TGI (%): TGI (%)=[1−(average tumor volume at the end of administration of a certain treatment group−average tumor volume at the beginning of administration of the treatment group)/(average tumor volume at the end of treatment in the vehicle control group−average tumor volume at the beginning of treatment in the vehicle control group)]×100%. Relative tumor proliferation rate T/C (%): the calculation formula is as follows: T/C %=TRTV/CRTV×100% (TRTV: RTV in the treatment group; CRTV: RTV in the negative control group). The relative tumor volume (RTV) was calculated according to the results of tumor measurement, and the formula is RTV=Vt/V0, where V0 is the average tumor volume measured at the time of group administration (i.e. d0), and Vt is the average tumor volume at a certain measurement, and TRTV and CRTV were taken on the same day. After the experiment, the tumor weight would be detected, and the percentage of T/Cweight would be calculated. Tweight and Cweight represent the tumor weight of the administration group and the vehicle control group, respectively.
Statistical analysis: Statistical analysis included the mean and standard error (SEM) of tumor volume at each time point for each group. […] T-test was used for comparison between two groups, and one-way ANOVA was used for comparison between three or more groups. […]
In general terms: A xenograft is tissue or cells of one species grown in another, often human tumour cells in immunodeficient mice.

Data set [2] in a line: In vivo pharmacokinetics in mice, intravenous injection and oral administration. To be noted: male CD1 mice. Also on record: species or system mouse. On the procedure:
In this experimental example, in vivo pharmacokinetics in mice were evaluated by intravenous injection and oral administration.
Experimental methods and conditions: Male CD1 mice, aged 6-8 weeks, all animals were free access to food and water, and were given a single dose of the compound to be tested at 1 mg/Kg by intravenous injection (solvent 5% DMSO/15% Solutol/80% Saline), at 5 min, 15 min, 30 min, 1 hr, 2 hr, 4 hr, 8 hr, 24 hr, 48 h after drug administration, or oral gavage administration of 10 mg/kg (solvent 5% DMSO/10% Solutol/85% Saline), at 15 min, 30 min, 1 hr, 2 hr, 4 hr, 6 h, 8 hr, 24 hr, 48 h after administration, blood was collected from the orbit, no less than 50 μL for each sample, heparin sodium was used for anticoagulation, and then placed on ice after collection, and centrifuged within 1 hour to separate the plasma for testing. The plasma concentration of the drug was detected by liquid tandem mass spectrometry (LC/MS/MS), and the pharmacokinetic parameters were calculated by Phoenix WinNonlin software.

In the next data set the test system is LNcap FGC cells. Nature of the data set: Inhibition of proliferation of LNcap FGC cells (Cell Titer Glo, 6 days). It counts as cell-based. To be noted: Homo sapiens, LNCaP, 144 h. On the procedure: Tumor cell line LNcap FGC (ATCC catalog number CRL-1740) was cultured in RPMI 1640 (Gibco catalog number 11875-093) and DMEM (Gibco catalog number. 11965-092) medium containing 10% FBS (Gibco catalog number 10099-141C), respectively.
(§1) LNcap FGC cells were inoculated in a 384-well plate (Perkin Elmer catalog number 6007460) at a cell density of 400 cells/well in a volume of 20 μL/well and incubated overnight in a carbon dioxide incubator (Thermo). The prepared compound solutions of different concentrations were added in a volume of 5 μL/well. The corresponding vehicle control was set at the same time. After being cultured in the incubator for 6 days, the cell plate and the contents were equilibrated to room temperature, and 25 μL of Cell Titer Glor (Promega catalog number G7573) was added to each well, shook and mixed well, incubated in dark for 10-30 minutes, and the signal values were detected with Envision microplate reader (PerkinElmer).
The percentage inhibition rate of compound-treated wells was calculated from the vehicle control wells on the plate, and the percentage inhibition rate data corresponding to different concentrations were fitted by GraphPad prism, and the IC50 values were calculated by 4-parameter nonlinear logic formula.

A further data set has as its target T1, androgen receptor (Homo sapiens, UniProt P10275).
T1 construct: endogenous in cells; host or cells: VCaP cells
T1 sequence (P10275 1-920): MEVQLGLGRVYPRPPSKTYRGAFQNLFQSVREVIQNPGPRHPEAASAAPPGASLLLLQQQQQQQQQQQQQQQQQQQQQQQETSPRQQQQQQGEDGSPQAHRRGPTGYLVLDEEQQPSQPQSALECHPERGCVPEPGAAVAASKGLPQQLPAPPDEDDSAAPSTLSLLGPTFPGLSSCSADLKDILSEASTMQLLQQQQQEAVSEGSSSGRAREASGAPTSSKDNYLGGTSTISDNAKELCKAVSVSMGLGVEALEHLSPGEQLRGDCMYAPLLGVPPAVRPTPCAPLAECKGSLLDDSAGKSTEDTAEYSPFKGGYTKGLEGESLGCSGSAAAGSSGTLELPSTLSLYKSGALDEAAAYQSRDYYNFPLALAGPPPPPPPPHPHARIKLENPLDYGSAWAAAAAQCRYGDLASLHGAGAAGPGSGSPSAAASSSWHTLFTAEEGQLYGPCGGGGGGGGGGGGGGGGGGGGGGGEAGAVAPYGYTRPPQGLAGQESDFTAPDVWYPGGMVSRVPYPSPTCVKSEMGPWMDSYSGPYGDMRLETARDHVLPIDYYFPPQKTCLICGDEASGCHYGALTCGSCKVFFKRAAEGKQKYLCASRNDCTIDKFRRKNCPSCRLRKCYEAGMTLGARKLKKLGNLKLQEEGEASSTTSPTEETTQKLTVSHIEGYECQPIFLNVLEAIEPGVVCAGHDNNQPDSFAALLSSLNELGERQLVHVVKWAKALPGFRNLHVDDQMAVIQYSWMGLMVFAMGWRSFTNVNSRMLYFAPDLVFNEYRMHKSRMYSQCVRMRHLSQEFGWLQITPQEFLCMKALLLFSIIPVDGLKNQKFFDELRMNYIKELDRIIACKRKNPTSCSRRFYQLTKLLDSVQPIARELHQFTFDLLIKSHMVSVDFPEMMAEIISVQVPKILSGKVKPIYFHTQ
The experiment in a line: In-Cell-Western determination of androgen receptor degradation in VCaP cells. The format is cell-based. To be noted: 24 hours treatment. The protocol: The determination evaluated the properties of the compounds in Vcap cells. Intracellular androgen receptor was determined by In-Cell-Western according to the determination steps described below.
In poly-D-Lysin pretreated 96-well cell culture plate (Corning 3599), Vcap cells were divided into […] volume, and inoculated with 50,000 cells/well in Vcap cell assay medium [DMEM containing phenol red (Gibco catalog number: 11995065); fetal bovine serum FBS (Gibco catalog number: 10099141C)]. Cells were cultured for at least two days.
1. First treated cells with compound. Compounds were gradient diluted with DMSO and cell culture medium, so that DMSO contained in cell culture plates was diluted to 0.5% —polypropylene plates were used according to the following protocol:
(1)(i) 200× stock plate in DMSO was prepared; (ii) 10 mM stock solution was diluted 1:4 with DMSO (10 μL stock solution+40 μL DMSO)=2000 μM, then entered into row 2; (iii) 1:4 (10 μL protac+40 μL DMSO) gradient dilution was performed in row 2 to row 9, and row 1 was reserved for 2000 μM reference compound and row 10 for DMSO. (iv) A total of 8 concentrations (final concentrations on the 200×plate were 2000 μM, 400 μM, 80 μM, etc.). (i) 3×stock solution in medium was prepared; (ii) 3 μL of 200× stock solution was transferred to 197 μL of culture medium (using 12-channel pipette, from line 1 to line 10), i.e. 3× stock solution plate. (iii) The stock solution plate was mixed evenly. (3) (i) The culture medium of Vcap cells was replaced with fresh culture medium, 100 μL volume culture medium. (ii) The well-mixed 3×stock solution was transferred to the cell culture plate (using 12-channel pipette, and 50 μL of stock solution was transferred from line 1 to line 10). (iii) Cells were cultured for 24 hours.
2. The expression level of intracellular androgen receptor after compound treatment was […] and determined according to the following method.
(1)(i) Equal volume of 8% paraformaldehyde was added to the cell culture plate for cell fixation. The fixing solution in the cell plate was discarded and washed three times with PBS. (ii) Triton solution (1:1000 dilution of the stock solution) was prepared. The solution in the cell plate was discarded, and 200 μL of Triton diluent was added into each well. (iii) 2×blocking solution (1:4 dilution of 10×blocking stock solution) was prepared. The solution in the cell plate was discarded, and 100 μL of 2×blocking solution was added into each well. (iv) Primary antibody solution (Androgen receptor Rabbbit mAb, Cell Signaling Technology catalog number: 5153; 1:1000 dilution) was prepared. The solution in the cell plate was discarded, 100 μL volume of primary antibody diluent was added to each well, and incubated at 4° C. overnight. (v) The primary antibody solution was discarded and the cell plate was washed with 1×Wash buffer. (vi) Secondary antibody solution (GOAT Antirabbit IgG (H+L), HRP, Thermo catalog number: 31460; 1:5000 dilution) was prepared, and 100 μL volume of secondary antibody dilution was added to each well for incubation. (vii) The secondary antibody solution in the cell plate was discarded and the cell plate was washed with 1× Wash buffer. (viii) TMB chromogenic solution (BD catalog number: 550534) was prepared, and 100 μL chromogenic solution was added into each well. (ix) 50 μL volume of stop solution (BD catalog number: 550534) was added to each well. (x) The absorption values at OD 450 nm and 570 nm were read though EnVision. (2)(i) Normalized analysis was performed on the number of cells in each well. The solution in the cell plate was discarded, and washed with wash buffer for three times. (ii) Janus dilution (1:3 dilution) was prepared. (iii) 50 μL volume diluent was added to each well for incubation. (iv) The solution in the plate was discarded and washed with deionized water. […]

The subject of the next data set is VCap cells. Nature of the data set: Inhibition of proliferation of VCap cells (Cell Titer Glo, 6 days). The settings on record: Homo sapiens, VCaP, 144 h. It counts as cell-based. The protocol:
Tumor cell line VCap FGC (ATCC catalog number CRL-2876) was cultured in DMEM (Gibco catalog number 11965-092) medium containing 10% FBS (Gibco catalog number 10099-141C), respectively. During the determination, Vcap cells were replaced with DMEM medium containing 5% FBS and 0.1 nM R1881 (Sigma catalog number R0908).
as §1, with “Vcap” for “LNcap”, “1200” for “400”, “shake” for “shook”, “mix” for “mixed”, “though” for “with”
The percentage inhibition rate of compound-treated wells was calculated from vehicle control wells on the plate, and the percentage inhibition rate data corresponding to different concentrations were fitted by GraphPad prism, and the IC50 values were calculated by 4-parameter nonlinear logic formula.
On the technique in general: Cellular ATP, detected with luciferase, serves as a proxy for viable cell number.

The mark [3] stands for this setting: mouse, intravenous administration 1 mg/kg, plasma.
Setting [4] is: mouse, oral administration 10 mg/kg, plasma.

A word on the AUC(0-inf): it is total exposure, with the tail of the curve extrapolated. A lower AUC(0-inf) goes with less exposure. One may read the half-life as how long it takes for the measured level to halve. A word on the Cmax: it is the peak of the concentration-time curve. Broadly, the IC50 is the point on the concentration scale where inhibition reaches its midpoint. Low values mean greater potency in that assay, high ones weaker potency in that assay. As usually defined, the DC50 is the concentration at which degradation of the target reaches its halfway point. High values mean degradation only at high concentration, low ones degradation at low concentration. The Dmax is the greatest extent of degradation seen. Higher therefore signals a fuller loss of target.

Consider `CNC(=O)c1ccc(N2C(=S)N(c3ccc(C#N)c(C(F)(F)F)c3)C(=O)C2(C)C)cc1F` [enzalutamide, reference compound], for which the “tumor growth inhibition rate (TGI)” value in data set [1] is recorded as 45%.
In data set [2] (oral administration 10 mg/kg vs intravenous 1 mg/kg), `CC1(C)[C@H](NC(=O)c2ccc(N3CCC(CN4CCN(c5ccc6c(c5)C(=O)N(C5CCC(=O)NC5=O)C6=O)CC4)CC3)cc2)C(C)(C)[C@H]1Oc1ccc(C#N)c(Cl)c1` (stereo partly drawn) [Reference substance 1, reference compound] displayed an F of 99.0%. Moreover, in data set [2] (setting [3]), the AUC(0-inf) worked out at 5360 ng·h/mL, the clearance stood at 3.11 mL/min/kg and the half-life is 13.4 h. In data set [2] (setting [4]), this molecule had an AUC(0-inf) of 53000 ng·h/mL, a Cmax of 1420 ng/mL and a half-life of 14.4 h. Further, the “tumor growth inhibition rate (TGI)” value in data set [1] (dose 10 mpk) came to 60%.
In the data set with LNcap FGC cells, `CC1(C)C(=O)N(c2ccc(C#N)c(Cl)c2)c2ccc(-c3ccc(N4CC(CN5CCN(c6ccc7c(c6)C(=O)N(C6CCC(=O)NC6=O)C7=O)CC5)C4)nc3)cc21` (stereo not drawn) [Compound 9] registered an Emax of 100% and an IC50 of 0.0355 µM. In addition, at androgen receptor (concentration for half of the maximal degradation of AR in VCaP cells), it took 0.121 µM to reach half-maximal degradation (DC50). This molecule registered a Dmax at androgen receptor (maximum degradation of AR in VCaP cells) of 56%. In the data set with VCap cells, this molecule yielded an Emax of 97% and an IC50 of 0.061 µM.

The values above are taken from patent US12441706B2, “Protein degradation agent compound preparation method and application” (SHANGHAI JEMINCARE PHARMACEUTICALS CO., LTD., priority 2019, dated 2025).
